Experiments:
[1] = target: T1, Neuropeptide Y receptor type 1 (Homo sapiens, UniProt P25929); experiment: Displacement of [125I]PYY from human recombinant NPY1 receptor expressed in CHO cells; assay type: cell-based
T1 sequence (P25929 whole entry): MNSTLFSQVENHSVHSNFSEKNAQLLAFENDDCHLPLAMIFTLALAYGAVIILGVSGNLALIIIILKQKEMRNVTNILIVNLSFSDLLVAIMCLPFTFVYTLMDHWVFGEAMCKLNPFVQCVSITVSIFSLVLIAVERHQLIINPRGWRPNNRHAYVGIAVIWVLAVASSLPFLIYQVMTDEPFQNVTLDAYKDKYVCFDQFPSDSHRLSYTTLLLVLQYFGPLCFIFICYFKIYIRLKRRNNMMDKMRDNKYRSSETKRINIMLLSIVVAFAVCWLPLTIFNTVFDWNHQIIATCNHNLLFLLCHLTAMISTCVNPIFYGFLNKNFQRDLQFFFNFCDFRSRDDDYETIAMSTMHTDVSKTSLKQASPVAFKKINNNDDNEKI

[2] = Oral bioavailability in CD rat at 5 mg/kg, po; assay type: ADME, organism-based; details: in vivo
[3] = Plasma clearance in CD rat at 1 mg/kg, iv; assay type: ADME, organism-based; parameters: dose 1 mg/kg, route intravenous
[4] = Ratio of drug level in brain against plasma in CD rat at 1 mg/kg, iv; assay type: ADME, organism-based; parameters: dose 1 mg/kg, route intravenous; details: brain and plasma

CN1CCN(C2C[C@@H](Oc3ccc(Cl)cc3)c3c(c4ccccc4n3CC3CCNCC3)C2=O)CC1=O (stereo partly specified)
IC50 [1]: 3890 nM

CN1CCN(C2C[C@@H](Oc3ccc(Cl)cc3)c3c(c4ccccc4n3CCCN3CCCCC3)C2=O)CC1 (stereo partly specified)
IC50 [1]: 1320 nM

CC1CCN([C@@H]2C[C@@H](Oc3ccc(Cl)cc3)c3c(c4ccccc4n3CC3CCNCC3)C2=O)CC1
IC50 [1]: 97.7 nM

O=C1c2c(n(CCCN3CCCCC3)c3ccccc23)[C@H](Oc2ccc(Cl)cc2)CC1N1CCCCC1 (stereo partly specified)
IC50 [1]: 3390 nM

CNC1CCC(Cn2c3c(c4ccccc42)C(=O)C(N2CCN(C)CC2)C[C@H]3Oc2ccc(Cl)cc2)CC1 (stereo partly specified)
IC50 [1]: 93.3 nM

O=C1CC[C@@H](Oc2ccc(Cl)cc2)c2c1c1ccccc1n2CCCN1CCCCC1
IC50 [1]: 7240 nM

CC1CCN(C2C[C@@H](Oc3ccc(Cl)cc3)c3c(c4ccccc4n3CCCN3CCCCC3)C2=O)CC1 (stereo partly specified)
IC50 [1]: 646 nM

CN1CCN([C@@H]2C[C@@H](Oc3ccc(Cl)cc3)c3c(c4ccccc4n3CC3CCNCC3)C2=O)CC1
IC50 [1]: 776 nM

O=C1c2c(n(CCCN3CCCCC3)c3ccccc23)[C@H](Oc2ccc(Cl)cc2)CC1N1CCNCC1 (stereo partly specified)
IC50 [1]: 331 nM

O=C1c2c(n(CCCN3CCCCC3)c3ccccc23)[C@H](Oc2ccc(Cl)cc2)CC1N1CCOCC1 (stereo partly specified)
IC50 [1]: 15800 nM

CN1CCN(C2C[C@@H](Oc3ccc(Cl)cc3)c3c(c4ccccc4n3C[C@H]3CCNC[C@@H]3F)C2=O)CC1 (stereo partly specified)
IC50 [1]: 240 nM

O=C1c2c(n(CC3CCNCC3)c3ccccc23)[C@H](Oc2ccc(Cl)cc2)CC1N1CCN(CCO)CC1 (stereo partly specified)
IC50 [1]: 37.2 nM

CC1(F)CCN(C2C[C@@H](Oc3ccc(Cl)cc3)c3c(c4ccccc4n3CC3CCNCC3)C2=O)CC1 (stereo partly specified)
IC50 [1]: 100 nM

CN1CCN(C2C[C@@H](Oc3ccc(Cl)cc3)c3c(c4ccccc4n3C[C@H]3CCN(C)C[C@@H]3F)C2=O)CC1 (stereo partly specified)
IC50 [1]: 437 nM

CN1CCN(C2C[C@@H](Oc3ccc(Cl)cc3)c3c(c4ccccc4n3C[C@@H]3CCNC[C@@H]3F)C2=O)CC1 (stereo partly specified)
IC50 [1]: 186 nM

CC1CCN([C@H]2C[C@@H](Oc3ccc(Cl)cc3)c3c(c4ccccc4n3CC3CCNCC3)C2=O)CC1
IC50 [1]: 22.4 nM

CN1CCN(C2C[C@@H](Oc3ccc(Cl)cc3)c3c(c4ccccc4n3C[C@@H]3CCN(C)C[C@@H]3F)C2=O)CC1 (stereo partly specified)
IC50 [1]: 170 nM | Ki [1]: 100 nM

CN1CCC(Cn2c3c(c4ccccc42)C(=O)C(N2CCN(C)CC2)C[C@H]3Oc2ccc(Cl)cc2)CC1 (stereo partly specified)
bioavailability [2]: 27% | clearance [3]: 59 mL/min/kg | Kp [4]: 0.8 | IC50 [1]: 33.9 nM

O=C1c2c(n(CC3CCNCC3)c3ccccc23)[C@H](Oc2ccc(Cl)cc2)CC1N1CCC(F)(F)CC1 (stereo partly specified)
IC50 [1]: 1860 nM

CN1CCN([C@H]2C[C@@H](Oc3ccc(Cl)cc3)c3c(c4ccccc4n3CC3CCNCC3)C2=O)CC1
bioavailability [2]: 0% | IC50 [1]: 49 nM

CN1CCN(C2C[C@@H](Oc3ccc(Cl)cc3)c3c(c4ccccc4n3C)C2=O)CC1 (stereo partly specified)
IC50 [1]: 25100 nM

From ChEMBL document CHEMBL1139029, “Synthesis and SAR of substituted tetrahydrocarbazole derivatives as new NPY-1 antagonists” (Bioorg Med Chem Lett, 2006)
